Experimental data from publication PMC5374441 (Scientific Reports, 2017).
Bridge positions count the residues as written; N and C are the ends. Peptide text beside a SMILES is read from it.

Target: T1, Q55K Ls-AChBP mutant (Lymnaea stagnalis, UniProt P58154, Q74K)
T1 construct: made in house; Top10 E. coli is named only for plasmid propagation
Test: biochemical
Assay type: binding
Conditions: SEM

SMILES: CC[C@H](C)[C@@H]1NC(=O)[C@H](CC(N)=O)NC(=O)[C@@H]2CCCN2C(=O)[C@H](CC(N)=O)NC(=O)[C@H](CC(N)=O)NC(=O)[C@H](C(C)C)NC(=O)[C@H](CCCNC(=N)N)NC(=O)[C@@H]2CSSC[C@H](NC(=O)CNC(=O)[C@@H](N)CO)C(=O)N[C@@H](CSSC[C@@H](C(N)=O)NC1=O)C(=O)N[C@@H](CO)C(=O)N[C@@H](CC(N)=O)C(=O)N1CCC[C@H]1C(=O)N[C@@H](C)C(=O)N2 [LsIA] (H-SGCCSNPACRVNNPNIC-NH2; disulfide 3-9, 4-17)
- IC50: 17.4 ± 10.7 µM
